Source: patent US20150047066A1, “PLANT HAVING INCREASED RESISTANCE OR SUSCEPTIBILITY TO 4-HPPD INHIBITOR” (TOYAMA PREFECTURE, priority 2010, published 2015)

Assays:
KHSL04 = assay: BBC susceptibility of Koshihikari/Habataki chromosome segment substitution lines (QTL analysis); type: in vivo, rice; conditions: KHSL04, short arm region of chromosome 2 substituted with Habataki type
Procedure: A Koshihikari/Habataki chromosome segment substitution line and Tachisugata//Tachisugata/Momiroman BC1F4 were tested. Specifically, Koshihikari/Habataki chromosome segment substitution lines (KHSL) were analyzed, in which a portion of chromosome fragments of a resistant cultivar Koshihikari serving as the genetic background was substituted with a chromosome of an indica type susceptible cultivar Habataki. Note that KHSL consists of 32 lines, and enables analysis on all of the whole 12 chromosomes of Habataki (as to KHSL, see Kazumasa Murata et al., “Development and evaluation of CSSLs carrying overlapping chromosome segments of rice cultivar Habataki in a genetic background of cultivar Koshihikari, ” Breeding Research, Mar. 27, 2009, vol. 11, supplement issue 1, p. 66). In addition, 94 BC1F4 lines obtained by one-time backcrossing of a resistant cultivar Tachisugata to a susceptible cultivar Momiroman were analyzed using 80 SSR markers (as to the SSR markers used, see “Development and mapping of 2240 new SSR markers for rice (Oryza sativa L.)”, DNA Res, 2002, vol. 9, iss. 6, pp. 199 to 207, and http://www.gramene.org/).
Accordingly, the QTL analysis was performed as described above on the Koshihikari/Habataki chromosome segment substitution lines (KHSL) using the BBC resistant rice cultivar “Koshihikari” and the susceptible rice cultivar “Habataki”.

[1] = tested on: A. thaliana (ecotype Columbia); assay: BBC whitening of wildtype A. thaliana on agar medium; type: in vivo, Arabidopsis thaliana; conditions: agar medium containing 0.03 μM BBC
Procedure: Whether or not a protein encoded by a particular gene has an activity of providing a plant with resistance to a 4-HPPD inhibitor can be determined, for example, by introducing the gene into a plant, and assaying whether or not the plant thus produced is provided with the resistance as described in Examples later (see Example 2). Specifically, in a case of using A. thaliana (ecotype Columbia) that would be whitened by an agar medium containing 0.03 μM BBC, if a transformant produced by introducing the gene into A. thaliana can grow without being whitened in the presence of BBC at the above concentration, the protein encoded by the gene can be determined to have an activity of providing a plant with resistance to a 4-HPPD inhibitor. Moreover, in a case of using a BBC susceptible rice cultivar “Kanto 239” that would be whitened by an agar medium containing 0.1 μM BBC, if a transformant produced by introducing the gene into Kanto 239 can grow without being whitened in the presence of BBC at the above concentration, the protein encoded by the gene can be determined to have an activity of providing a plant with resistance to a 4-HPPD inhibitor.

[2] = tested on: A. thaliana recombinants having the target gene introduced therein; assay: BBC resistance assay on A. thaliana recombinants (T2) having the target gene (AK065581, HIS1) introduced; type: in vivo, Arabidopsis thaliana; conditions: HIS1 recombinants T2 generation, agar medium containing 0.03 μM BBC
Procedure: For transformation of A. thaliana, ecotype “Columbia” was used, and a Floral dip method was performed (see Weigel and Glazebrook, Arabidopsis, a laboratory manual, Cold Spring Harbor Laboratory Press (2002) p131-132). Specifically, first, Agrobacterium was shake-cultured in a liquid medium (LB or YEB) containing an antibiotic. Approximately 16 hours later, 2 ml of the culture solution was added to a liquid medium (LB or YEB) containing an antibiotic, and further shake-cultured. Then, the culture solution obtained approximately 16 hours thereafter was centrifuged at 8000 rpm at 4° C. for 10 minutes. The supernatant liquid was discarded, and the resulting precipitate was suspended in 500 ml of a solution containing 5% sucrose. Subsequently, immediately before the transformation, a transformation reagent silwet (registered trademark: SILWET L-77, product number: BMS-SL7755, manufactured by Bio Medical Science Inc.) was added thereto at a final concentration of 0.025%. Then, into the Agrobacterium suspension thus obtained, Arabidopsis from which already flowered and pollinated buds had been removed was dipped for 30 to 120 seconds. Thereafter, the plants were left standing for 16 hours and then grown to obtain the seeds. […]

[3] = tested on: Momiroman, Takanari, Kasalath; assay: BBC susceptibility level of susceptible rice cultivars; type: in vivo; conditions: Momiroman and Takanari in comparison with Kasalath
[4] = tested on: BBC susceptible rice cultivar Kanto 239; assay: BBC whitening of wildtype susceptible rice on agar medium; type: in vivo; conditions: Kanto 239 wildtype, agar medium containing 0.1 μM BBC
Procedure: Whether or not a protein encoded by a particular gene has an activity of providing a plant with resistance to a 4-HPPD inhibitor can be determined, for example, by introducing the gene into a plant, and assaying whether or not the plant thus produced is provided with the resistance as described in Examples later (see Example 2). Specifically, in a case of using A. thaliana (ecotype Columbia) that would be whitened by an agar medium containing 0.03 μM BBC, if a transformant produced by introducing the gene into A. thaliana can grow without being whitened in the presence of BBC at the above concentration, the protein encoded by the gene can be determined to have an activity of providing a plant with resistance to a 4-HPPD inhibitor. Moreover, in a case of using a BBC susceptible rice cultivar “Kanto 239” that would be whitened by an agar medium containing 0.1 μM BBC, if a transformant produced by introducing the gene into Kanto 239 can grow without being whitened in the presence of BBC at the above concentration, the protein encoded by the gene can be determined to have an activity of providing a plant with resistance to a 4-HPPD inhibitor. […]

[5] = tested on: BBC resistant cultivar Nipponbare; assay: BBC whitening of resistant rice cultivar on agar medium; type: in vivo
[6] = tested on: rice recombinants (Kanto 239) having the target gene (AK065581) introduced therein; assay: BBC resistance assay on rice recombinants (T0, HIS1) in composted soil; type: in vivo; conditions: HIS1 recombinants T0 generation, composted soil treated with BBC at 300 ga.i./ha
Procedure: (§1) For transformation of rice, a BBC susceptible rice cultivar Kanto 239 was used, and the method described in “Taniguchi et al., Plant Cell Rep., 2010, vol. 29, iss. 11, pp. 1287 to 1295” was performed with some modification. Specifically, first, sterilized mature seeds were sown on an N6D medium. After culturing at 30° C. for 7 days, the seeds were infected with Agrobacterium, and co-cultured in an acetosyringone (AS)-containing N6 medium (2N6-AS medium) under a dark condition at 25° C. for 3 days. Thereafter, the infected tissues were cultured in a carbenicillin-containing N6D medium for 4 to 6 weeks (18 hours day length) in the presence of 40 mg/L hygromycin (Hyg), and Hyg-tolerant calli were re-differentiated.
Further, recombinants (TO generation) were prepared by introducing the target gene into the BBC susceptible rice cultivar “Kanto 239” that would be whitened by an agar medium containing 0.1 μM BBC, and the growth state of the recombinants was examined in composted soil treated with BBC at 300 ga.i./ha.

[7] = tested on: Tos17-inserted lines of Nipponbare; assay: Linkage analysis of BBC susceptibility in Tos17-inserted lines; type: in vivo, rice; conditions: all progenies of six Tos17-inserted homozygous individuals
From the text: A retrotransposon Tos17 discovered in rice is activated by tissue culture, and its copies are transposed into a genome. It is known that when the transposition site is inside a gene, the gene is to be disrupted, causing a mutation (see Hirochika et al., Proc. Natl. Acad. Sci. USA, 1996, vol. 93, pp. 7783 to 7788). The present Examples utilized a rice population having accumulated mutations caused by tissue culture utilizing the phenomenon (mutant panel, database name: Tos17 mutant panel database (http://tos.nias.affrc.go.jp/ to miyao/pub/tos17/)). From the Tos17 mutant panel database, two lines were selected, in each of which Tos17 was inserted in a transcription site of a hypothetical gene of an iron/ascorbate oxidoreductase gene, which was strongly suspected of being associated with BBC susceptibility located at a gene locus specified by the QTL analysis. Then, self-fertilized seeds obtained by planting 15 individuals of each of these two lines were used to examine phenotype (BBC susceptibility) and genotype (Tos17 insertion).
Although the original cultivar “Nipponbare” of the Tos17-inserted lines is a BBC resistant cultivar, BBC susceptible individuals are derived from the lines having Tos17 inserted in the transcription site of the target gene. […]

[8] = tested on: tomato cultivar Micro-Tom; assay: Germination of tomato seeds on BBC agar medium; type: in vivo; conditions: Micro-Tom seeds germinated on agar medium containing 0.3 μM BBC, 25° C., approximately 2 weeks
Procedure: For transformation of tomatoes, a cultivar “Micro-Tom” was tested, and an Agrobacterium method was performed using vectors (35SHIS1pZK3, 35SHSL1pZK3) shown in FIGS. 5 and 7. Note that when seeds of the original cultivar Micro-Tom were germinated on an agar medium containing 0.3 μM benzobicyclon (BBC) using an incubator at 25° C., it was clearly observed approximately 2 weeks later that leaf parts thereof were whitened.

[9] = tested on: rice recombinants (Kanto 239) having the homologous gene (HSL1; AK241948) introduced therein; assay: BBC resistance assay on rice recombinants having the HSL1 gene (AK241948) on agar medium; type: in vivo; conditions: agar medium containing 0.12 μM BBC
Procedure: as §1
Specifically, recombinants were prepared by introducing the target gene into the BBC susceptible rice cultivar “Kanto 239” that would be whitened by an agar medium containing 0.1 μM BBC, and T1 seeds or T2 seeds were obtained. These were seeded on an agar medium containing 0.12 μM BBC, and the growth state of the recombinants was examined.

[10] = tested on: rice recombinants (Kanto 239) having the target gene (AK065581) introduced therein; assay: Triketone type 4-HPPD inhibitor resistance assay on rice recombinants (T1/T2 seeds, HIS1) on agar medium; type: in vivo
Procedure: as §1
Rice recombinants (T1 and T2 generations) were produced and subjected to a resistance assay with triketone type 4-HPPD inhibitors, that is, mesotrione, tefuryltrione, tembotrione, and NTBC, using commercially-available reagents at concentrations to be described later.
Furthermore, recombinants were prepared by introducing the target gene into the BBC susceptible rice cultivar “Kanto 239” that would be whitened by an agar medium containing 0.1 μM BBC, and T1 seeds or T2 seeds were obtained. These were seeded on an agar medium containing 2 μM BBC, and the growth state of the recombinants was examined. […] Moreover, the seeds were seeded on an agar medium containing 1 μM mesotrione, 2.5 μM tefuryltrione, 0.5 μM tembotrione, or 1 μM NTBC, and the growth state of the recombinants was examined. FIGS. 12 to 15 show the obtained results.

What does the source list for `CS(=O)(=O)c1ccc(C(=O)C2=C(Sc3ccccc3)C3CCC(C3)C2=O)c(Cl)c1` (stereo not shown) [BBC, benzobicyclon]?
BBC susceptibility (KHSL04): showed susceptibility; whitening of the plant [1]: whitened; growth state of the recombinants [2]: grew without being whitened; degree of BBC susceptibility [3]: high BBC susceptibility; whitening of the plant [4]: whitened; whitening of the plant ([5]; 0.12 μM BBC): not whitened; whitening of the plant ([5]; agar medium 2 μM BBC): sufficient to whiten; growth state of the recombinants [6]: grew without being whitened; phenotype (BBC susceptibility) [7]: showed BBC susceptibility; whitening of leaf parts [8]: whitened; growth state of the recombinants [9]: grew without being whitened; growth state of the recombinants ([10]; agar medium treated with 2 μM BBC): grew without being whitened

`O=C1CCCC(=O)C1C(=O)c1ccc(C(F)(F)F)cc1[N+](=O)[O-]` [NTBC, 2-(2-nitro-4-trifluoromethylbenzoyl)cyclohexane-1,3-dione] was tested. Which “growth state of the recombinants” value ([10]; agar medium treated with 1 μM NTBC) did it give?
Its value is “grew without being whitened”.

With `CS(=O)(=O)c1ccc(C(=O)C2C(=O)CCCC2=O)c([N+](=O)[O-])c1` [mesotrione] as the compound, how does the “growth state of the recombinants” value ([10]; agar medium treated with 1 μM mesotrione) read?
The value was “grew without being whitened”.

For `CS(=O)(=O)c1ccc(C(=O)C2C(=O)CCCC2=O)c(Cl)c1COCC1CCCO1` (stereo not shown) [tefuryltrione], which “growth state of the recombinants” value ([10]; agar medium treated with 2.5 μM tefuryltrione) is on record?
The value was “grew without being whitened”.

For `CS(=O)(=O)c1ccc(C(=O)C2C(=O)CCCC2=O)c(Cl)c1COCC(F)(F)F` [tembotrione], which “growth state of the recombinants” value ([10]; agar medium treated with 0.5 μM tembotrione) is on record?
Its value is “grew without being whitened”.
